Where “and” joins values, the source holds several entries; their conditions need not be identical. Equal values may be shown once.
Test system: antibodies to pathogenic Newcastle disease virus
Assay type: binding, chicken

Substance: 3 (RRQRRF) [compound 3]
- number of positive chickens/number of tested chickens: 1/5(0.81) and 0/5(0.70) and 4/4(2.45)

Reference: patent publication US8114408B2 (priority 2007, dated 2012)
